Experiment [1] concerns atherogenic diet fed apoE-deficient mice. Nature of the experiment: Anti-atherosclerotic and anti-obesity effects in atherogenic diet fed apoE-deficient mice. In kind it is in vivo. To be noted: 10 mg/kg/day p.o. for 15 weeks, male apoE-deficient mice on high fat diet, vehicle group taken as 100%; for Reduction in atherosclerotic lesion area (%): aorta, oil red O staining. As for the experimental part:
Assessments of anti-atherosclerotic effects and anti-obesity effects on atherogenic diet fed apoE-deficient mice were performed by the method described below.
Male apoE-deficient mice of 11-13 week-age (Jacson Lab) conditioned with ordinary diet (Research Diet) in separate cages were allowed to take high fat diet (Research Diet) at libitum for 14 weeks to thereby form atherosclerotic lesions in the aorta. The test compound suspended in 0.5% methyl cellulose solution was forcedly and orally administered to the mice at 10 ml/kg everyday for 15 weeks from 1 week prior to the start of the high fat diet feeding. Body weights were measured on the day of autopsy. The body weight reduction ratio of test compound-administered group was calculated taking the body weight of vehicle-administered group as 100%, to thereby obtain an index for anti-obesity effects. The aorta (from immediately above the aortic valve to the ventral branch of common iliac artery) removed under anesthesia was totally incised after removal of adipose tissue, etc. adhering to the outer membrane of the aorta, to thereby prepare an incised aorta specimen. After formalin fixing, the incised aorta specimen was subjected to staining with oil red O. The thus stained incised aorta specimen was photographed with a digital camera. Subsequently, image analysis using Image Pro program (Planetron, Inc.) was performed to determine the area of atherosclerotic lesions stained red and the total area of the incised specimen (the area of vascular inner wall). The ratio of atherosclerotic lesions (%) was calculated by dividing the area of atherosclerotic lesions by the area of vascular inner wall. The reduction ratio of the atherosclerotic lesion area (%) in test compound-administered group was calculated taking the area of atherosclerotic lesions in vehicle-administered group as 100%, to thereby obtain an index for anti-atherosclerotic effects. All the measurement of the ratio of atherosclerotic lesions was performed in a blind fashion.

In experiment [2] the target is T1, delta-5-desaturase (Rattus norvegicus, UniProt Q920R3).
T1 construct: the microsomal fraction of a rat river (10 μl), which had been diluted to 3 mg/ml; from tissue; host or cells: rat liver microsomal fraction
T1 sequence (Q920R3 whole entry): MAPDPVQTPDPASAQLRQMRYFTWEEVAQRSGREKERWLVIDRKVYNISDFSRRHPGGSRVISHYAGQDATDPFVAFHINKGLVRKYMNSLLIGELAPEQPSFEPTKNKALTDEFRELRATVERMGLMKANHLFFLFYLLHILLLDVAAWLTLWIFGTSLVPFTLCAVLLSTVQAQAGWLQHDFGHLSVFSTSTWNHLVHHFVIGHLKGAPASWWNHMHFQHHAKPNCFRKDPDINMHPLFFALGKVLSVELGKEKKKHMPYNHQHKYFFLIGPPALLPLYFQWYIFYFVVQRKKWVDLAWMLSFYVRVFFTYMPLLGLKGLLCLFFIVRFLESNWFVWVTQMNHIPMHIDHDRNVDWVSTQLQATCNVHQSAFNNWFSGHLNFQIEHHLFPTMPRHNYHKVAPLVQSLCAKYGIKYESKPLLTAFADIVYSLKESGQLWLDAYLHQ
Nature of the experiment: Inhibitory activity on delta-5-desaturase (rat liver microsomal fraction, 14C-eicosatrienoic acid, TLC). In kind it is biochemical. The note with it: test compound at 10 μM, room temperature, 120 minutes. A digest of the protocol:
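Rat liver microsomes (3 mg/ml before addition) incubated with test compound at 10 μM, NADH, ATP, CoA and 14C-eicosatrienoic acid in phosphate buffer pH 7.4 with BSA and glutathione, 120 min at room temperature. Lipids saponified, extracted, separated by reverse-phase TLC and imaged; % inhibition reported.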
On the technique in general: Microsomes from liver hold many membrane-bound enzymes, among them those of drug oxidation.

The test system of experiment [3] is ob/ob mice. Kind of experiment: Anti-diabetic effects in ob/ob mice, a type 2 diabetic model. To be noted: 10 mg/kg/day p.o. once a day for 6 weeks; male ob/ob mice; vehicle group 7.1%. In kind it is in vivo. As for the experimental part:
Anti-diabetic effects in ob/ob mice, a type 2 diabetic model were evaluated as describe next.
Male 9-week-old ob/ob mice (Charls river) habituated for a week were housed individually and freely fed a normal chow (CE-2, Japan Clea). The test compound was suspended in 0.5% methylcellulose solution. Vehicle (0.5% methylcellulose) or the compound was orally administered (5 mL/kg) once a day for 6 weeks. At the end of the treatment, bloods were collected from tail vein. The levels of glycosylated hemoglobin were measured as an index of diabetes severity using automated GHb analyzer (TOSOH Corporation).

From patent US20100190747A1, “Fused ring compound and use thereof” (priority 2009, published 2010) come the findings set out here.

As a reminder, the inhibition is the drop in the measured response relative to a control, in per cent. In the case of `O=C1Cc2c(nc(OCC(F)(F)C(F)(F)F)n(-c3ccc(OCC(F)(F)F)cc3)c2=O)N1` [Example 326, 2-(2,2,3,3,3-Pentafluoropropoxy)-3-[4-(2,2,2-trifluoroethoxy)phenyl]-5,7-dihydro-3H-pyrrolo[2,3-d]pyrimidine-4,6-dione], in experiment [1], the “Reduction in atherosclerotic lesion area (%)” value is recorded as 41% and the “Reduction in body weight (%)” value was 11%. Moreover, in experiment [2], the inhibition at 10 µM stood at 102%. In addition, in experiment [3], the “Glycosylated hemoglobin (%)” value came to 6.0%.

Regarding `O=C1Cc2c(nc(OCC(F)(F)F)n(-c3ccc(OCC(F)(F)F)cc3)c2=O)N1` [Example 274, 2-(2,2,2-Trifluoroethoxy)-3-[4-(2,2,2-trifluoroethoxy)phenyl]-5,7-dihydro-3H-pyrrolo[2,3-d]pyrimidine-4,6-dione], in experiment [1], the “Reduction in atherosclerotic lesion area (%)” value amounted to 26% and the “Reduction in body weight (%)” value is recorded as 8%. Also, in experiment [2], the inhibition at 10 µM is 100%.

As for `O=C1Cc2c(nc(SCC3CC3)n(-c3ccc(OCC(F)(F)F)cc3)c2=O)N1` [Example 297, 2-[(Cyclopropylmethyl)sulfanyl]-3-[4-(2,2,2-trifluoroethoxy)phenyl]-5,7-dihydro-3H-pyrrolo[2,3-d]pyrimidine-4,6-dione], in experiment [1], the “Reduction in atherosclerotic lesion area (%)” value stood at 26% and the “Reduction in body weight (%)” value is 8%. Besides, the inhibition at 10 µM in experiment [2] came to 101%.

As for `O=C1Cc2c(nc(OCC(F)(F)F)n(-c3ccc(OCC(F)(F)F)c(F)c3)c2=O)N1` [Example 309, 3-[3-Fluoro-4-(2,2,2-trifluoroethoxy)phenyl]-2-(2,2,2-trifluoroethoxy)-5,7-dihydro-3H-pyrrolo[2,3-d]pyrimidine-4,6-dione], the inhibition at 10 µM in experiment [2] is 98%.

For the compound `CCOCCCSc1nc2cc[nH]c2c(=O)n1-c1ccc(OCC2CC2)cc1` [Example 139, 3-[4-(Cyclopropylmethoxy)phenyl]-2-[(3-ethoxypropyl)sulfanyl]-3,5-dihydro-4H-pyrrolo[3,2-d]pyrimidin-4-one], the inhibition at 10 µM in experiment [2] came out at 101%. On the same count and under the same terms, the result for `CCOCCCSc1nc2[nH]ccc2c(=O)n1-c1ccc(OCC(F)(F)F)cc1` [Example 213, 2-[(3-Ethoxypropyl)sulfanyl]-3-[4-(2,2,2-trifluoroethoxy)phenyl]-3,7-dihydro-4H-pyrrolo[2,3-d]pyrimidin-4-one] reads 100%; that for `N#CCCNC(=O)CCCSc1nc2[nH]ccc2c(=O)n1-c1ccc(OCC2CC2)cc1` [Example 185, N-(2-cyanoethyl)-4-({3-[4-(cyclopropylmethoxy)phenyl]-4-oxo-4,7-dihydro-3H-pyrrolo[2,3-d]pyrimidin-2-yl}sulfanyl)butanamide], 97%; that for `CCSc1nc2c(c(=O)n1-c1ccc(OCC(F)(F)F)cc1)CC(=O)N2` [Example 265, 2-(Ethylsulfanyl)-3-[4-(2,2,2-trifluoroethoxy)phenyl]-5,7-dihydro-3H-pyrrolo[2,3-d]pyrimidine-4,6-dione], 98%. As for `CCSc1nc2cc[nH]c2c(=O)n1-c1ccc(OCC2CC2)c(Cl)c1` [Example 162, 3-[3-Chloro-4-(cyclopropylmethoxy)phenyl]-2-(ethylsulfanyl)-3,5-dihydro-4H-pyrrolo[3,2-d]pyrimidin-4-one], the inhibition at 10 µM in experiment [2] was 103%.

Consider `CCCCOc1nc2[nH]ccc2c(=O)n1-c1ccc(OCC(F)(F)F)cc1` [Example 222, 2-Butoxy-3-[4-(2,2,2-trifluoroethoxy)phenyl]-3,7-dihydro-4H-pyrrolo[2,3-d]pyrimidin-4-one], for which the inhibition at 10 µM in experiment [2] amounted to 101%. On to `O=c1c2cc[nH]c2nc(SC(F)F)n1-c1ccc(OCC(F)(F)F)cc1` [Example 223, 2-[(Difluoromethyl)sulfanyl]-3-[4-(2,2,2-trifluoroethoxy)phenyl]-3,7-dihydro-4H-pyrrolo[2,3-d]pyrimidin-4-one], for which the inhibition at 10 µM in experiment [2] worked out at 103%. On the same count and under the same terms, the result for `CSc1nc2[nH]ccc2c(=O)n1-c1ccc(OCC(F)(F)F)cc1` [Example 212, 2-(Methylsulfanyl)-3-[4-(2,2,2-trifluoroethoxy)phenyl]-3,7-dihydro-4H-pyrrolo[2,3-d]pyrimidin-4-one] reads 98%.

On to `CCCSc1nc2[nH]ccc2c(=O)n1-c1ccc(OCC(F)(F)F)cc1` [Example 224, 2-(Propylsulfanyl)-3-[4-(2,2,2-trifluoroethoxy)phenyl]-3,7-dihydro-4H-pyrrolo[2,3-d]pyrimidin-4-one], for which, in experiment [2], the inhibition at 10 µM is 100%. Still for that read-out and setting: to `O=c1c2cc[nH]c2nc(OCC2CC2)n1-c1ccc(OCC(F)(F)F)cc1` [Example 226, 2-(Cyclopropylmethoxy)-3-[4-(2,2,2-trifluoroethoxy)phenyl]-3,7-dihydro-4H-pyrrolo[2,3-d]pyrimidin-4-one] belongs 102%. As to `CCCCOc1nc2[nH]ccc2c(=O)n1-c1ccc(OCC(F)(F)F)cc1` [Example 287, 2-Butoxy-3-[4-(2,2,2-trifluoroethoxy)phenyl]-3,7-dihydro-4H-pyrrolo[2,3-d]pyrimidin-4-one], in experiment [2] (10 µM), the “Inhibitory activity at 10 μM (%)” value stood at 98%.

Turning to `O=c1c2cc[nH]c2nc(Oc2ccc(F)cc2)n1-c1ccc(OCC(F)(F)F)cc1` [Example 246, 2-(4-Fluorophenoxy)-3-[4-(2,2,2-trifluoroethoxy)phenyl]-3,7-dihydro-4H-pyrrolo[2,3-d]pyrimidin-4-one], in experiment [2], the inhibition at 10 µM amounted to 101%.

In the case of `O=C(CCCSc1nc2cc[nH]c2c(=O)n1-c1ccc(OCC(F)(F)F)cc1)N1CCS(=O)(=O)CC1` [Example 135, 2-{[4-(1,1-Dioxidothiomorpholin-4-yl)-4-oxobutyl]sulfanyl}-[4-(2,2,2-trifluoroethoxy)phenyl]-3,5-dihydro-4H-pyrrolo[3,2-d]pyrimidin-4-one], in experiment [2], the inhibition at 10 µM stood at 100%.

With `CCSc1nc2[nH]ccc2c(=O)n1-c1ccc(OCC(F)(F)F)cc1` [Example 194, 2-(Ethylsulfanyl)-3-[4-(2,2,2-trifluoroethoxy)phenyl]-3,7-dihydro-4H-pyrrolo[2,3-d]pyrimidin-4-one], the inhibition at 10 µM in experiment [2] worked out at 103%. Still for that read-out and setting: the result for `CC(C)CSc1nc2c(c(=O)n1-c1ccc(OCC(F)(F)F)cc1)CC(=O)N2` [Example 313, 2-[(2-Methylpropyl)sulfanyl]-3-[4-(2,2,2-trifluoroethoxy)phenyl]-5,7-dihydro-3H-pyrrolo[2,3-d]pyrimidine-4,6-dione] reads 102%; that for `O=C1Cc2c(nc(SCC3CCC3)n(-c3ccc(OCC(F)(F)F)cc3)c2=O)N1` [Example 296, 2-[(Cyclobutylmethyl)sulfanyl]-3-[4-(2,2,2-trifluoroethoxy)phenyl]-5,7-dihydro-3H-pyrrolo[2,3-d]pyrimidine-4,6-dione], 101%.

For the compound `CCSc1nc2[nH]ccc2c(=O)n1-c1ccc(OCC(F)F)cc1` [Example 248, 3-[4-(2,2-Difluoroethoxy)phenyl]-2-(ethylsulfanyl)-3,7-dihydro-4H-pyrrolo[2,3-d]pyrimidin-4-one], the inhibition at 10 µM in experiment [2] was found to be 101%.

Turning to `CCS(=O)(=O)c1nc2[nH]ccc2c(=O)n1-c1ccc(OCC(F)(F)F)cc1` [Example 207, 2-(Ethylsulfonyl)-3-[4-(2,2,2-trifluoroethoxy)phenyl]-3,7-dihydro-4H-pyrrolo[2,3-d]pyrimidin-4-one], the inhibition at 10 µM in experiment [2] stood at 101%.

On to `O=c1c2[nH]ccc2nc(SCCO)n1-c1ccc(OCC2CC2)cc1` [Example 144, 3-[4-(Cyclopropylmethoxy)phenyl]-2-[(2-hydroxyethyl)sulfanyl]-3,5-dihydro-4H-pyrrolo[3,2-d]pyrimidin-4-one], for which the inhibition at 10 µM in experiment [2] is 101%. Still for that read-out and setting: the result for `CCCSc1nc2cc[nH]c2c(=O)n1-c1ccc(OCC(F)(F)F)cc1` [Example 105, 2-(Propylsulfanyl)-3-[4-(2,2,2-trifluoroethoxy)phenyl]-3,5-dihydro-4H-pyrrolo[3,2-d]pyrimidin-4-one] reads 100%; that for `O=c1c2cc[nH]c2nc(SC(F)(F)F)n1-c1ccc(OCC(F)(F)F)cc1` [Example 253, 3-[4-(2,2,2-Trifluoroethoxy)phenyl]-2-[(trifluoromethyl)sulfanyl]-3,7-dihydro-4H-pyrrolo[2,3-d]pyrimidin-4-one], 98%.
